Tests used:
[1] = system: GABAA receptors in macropatches excised from CGN; test: Macropatch recording from CGN; format: cell-based, rat; details: 10 μM; SR 10 μM at the extracellular face (pipette)
Experimental: Macropatch recording: Macropatch recording was performed with 1.5-2 MΩ electrodes filled with bath solution. The inside of excised patches was perfused with electrode solution containing the indicated reagents. SR was added to the electrode where indicated.

[2] = system: GABAA receptors in cerebellar granule neurons; test: Whole-cell patch clamp in cerebellar granule neurons (CGN); format: cell-based, rat
Experimental: (§1) Reagents: All reagents were obtained from Sigma-Aldrich.
Culture of rat CGN: CGN were cultured from mixed-sex Sprague-Dawley rats. Tissue was dissected from 6- to 8-day-old rats. Cells were suspended in minimal essential medium supplemented with 10% fetal calf serum, 26 mM glucose, 19 mM KCl, 2 mM 1-glutamine, and penicillin/streptomycin (50 IU/ml and 50 μg/ml). Cells were seeded on poly-1-lysine-coated coverslips and incubated in a humidified atmosphere containing 5% CO2 at 37° C. After 48 hours, the culture medium was replaced with minimal essential medium supplemented with 10% horse serum, 26 mM glucose, 19 mM KCl, 2 mM 1-glutamine, penicillin/streptomycin (50 IU/ml and 50 μg/ml), and 80 μM 1-fluorodeoxyuridine. Culture medium was exchanged every three days. All recordings were made from cells between days 6 to 9 in culture.
(§2) Filter and sampling frequencies were 5 and 25 kHz, respectively, for voltage-clamp experiments and 1 and 10 kHz, respectively, for current-clamp recording. Experiments were performed at 32° C. using a feedback-controlled heated perfusion system (Warner Instruments). Vm, ligand-gated currents, and potassium channel currents were studied in a bath solution containing 1 mM CaCl2, 1 mM MgCl2, 4 mM KCl, 140 mM NaCl, 5 mM glucose, and 10 mM HEPES (pH 7.4). […] Electrodes were coated with Sigmacote (Sigma) prior to use.
(§3) Ligand-gated currents: Ligand-gated currents were studied in voltage-clamp mode by application of reagents to cells held at −50 mV.

[3] = system: GABAA receptors in hippocampal neurons; test: Whole-cell patch clamp in hippocampal neurons (HN); format: cell-based, rat; details: for increase of GABA-evoked currents: 500 nM modulator co-applied with 10 μM GABA; for increase of MG-evoked currents: 500 nM modulator co-applied with 10 μM MG
Experimental: as §1
Neurons were maintained in neurobasal medium with B27 supplement and glutamax in a humidified atmosphere with 5% CO2 at 37° C.
as §2, §3

[4] = system: depression-like behavior in mice; test: Chronic forced swim test (cFST), osmotic minipump; format: in vivo, mouse; details: fluoxetine 18 mg/kg/day, 14 days
Experimental: To fully assess the therapeutic potential of GLO1 inhibitors, it is necessary to utilize behavioral models sensitive to chronic administration. These models are highly informative as the therapeutic onset of antidepressant action mimics clinical onset in humans. pBBG was administered by osmotic minipumps (Alzet) for 14 days at various doses (0, 5, 10, 15, 30 and 60 mg/kg/day) to establish a dose response curve. Osmotic minipumps are ideal for chronic treatment as they release a constant volume at a very slow rate minimizing the stress of multiple injections.

[5] = system: motor coordination in mice; test: Balance beam test; format: in vivo, mouse; details: 300 mg/kg i.p., B6 mice
Experimental: The balance beam was 97 cm×9.5 mm and elevated to 46 cm. Mice were tested on the balance beam, and missteps were counted.
Balance beam: The balance beam test was performed as described above. Ten minutes post-injection, mice were tested on the balance beam, and missteps were recorded.

[6] = system: anxiety-like behavior and locomotion in mice; test: Open field (OF) test; format: in vivo, mouse; details: B6 mice
Experimental: OF test: Mice were placed into the center of the OF, and activity was monitored for five to ten minutes. The apparatus was illuminated to approximately 40 lux. Data were collected and processed using the manufacturer's software (AccuScan Instruments).
OF test: Ten minutes post-injection, mice were placed into the center of the OF. The apparatus was illuminated to approximately 40 lux. Behavior was measured as described above.
OF test replication studies: Ten to twenty minutes post-injection, mice were tested in the OF for five to ten minutes. In some experiments, behavior was scored as described above. In other experiments, mice were tested in the OF, and behavior was automatically scored by the Noldus Ethovision System. For mice tested in the Noldus system, the apparatus was illuminated to approximately 1,000 lux.
Chronic MG administration: For five days, mice were injected twice daily with vehicle or MG (4 mg/kg). Twelve hours after the final injection, mice were tested in the OF as described above.
Pure MG: Pure MG was obtained from Dr. John Termini at the City of Hope, Duarte, Calif. It was administered at the indicated doses by i.p. injection. Mice were tested as described above.
OF test: Two hours post-injection, mice were tested in the OF test as described above. The center size was 10×10 cm. The apparatus was illuminated to approximately 40 lux.

mice = test: Hypothermia (rectal temperature); format: in vivo, mouse; details: 300 mg/kg i.p., B6 mice
Experimental: Hypothermia: Thirty minutes post-injection, rectal temperature was measured with a digital thermometer.

[7] = system: anxiety-like behavior in C57BL6/J mice; test: OFT after bilateral microinjection into the basolateral amygdala (BLA); details: midazolam 4 mM, 0.5 ul bilateral into BLA, over 30 m
locomotion in Cd-1 mice = test: Open field test after i.p. glyceraldehyde; format: in vivo, mouse; details: GA i.p., tested 10 min after injection
Experimental: GA is rapidly converted into MG. Cd-1 mice (Charles River, Portage Mich.) were treated i.p. With vehicle (0.9% NaCl) or GA at the indicated doses. Ten minutes after injection, mice were tested in the open field (OF) test (locomotor chambers). Behavioral data were collected at 5 and 10 minutes. Because vehicle-treated mice differed in total distance traveled between the testing days, the data were not combined into a single analysis. Statistical analyses included repeated-measures anova for the factor treatment. The repeated measures were total distance (at 5 and 10 min) and % center time (at 5 and 10 min). For comparison of vehicle and GA at individual time points, a t-test was used. […] This would be an additional means of obtaining desirable clinical effects, including anxiolytic, antidepressant, anti-epileptic, and induction of sleep.

Br.COc1ccc(-c2ccc(=N)n(CCCC(=O)O)n2)cc1 [SR, reference compound]
current on application to the intracellular face of macropatches [1]: this current was inhibited when SR was applied to the extracellular face | inhibition of Vm changes induced by MG and GABA ([2]; 10 μM SR, 10 μM MG or GABA): > 95% | inhibition of current-density changes induced by MG and GABA ([2]; 10 μM SR, 10 μM MG or GABA): > 95%

CN1C(=O)CN=C(c2ccccc2)c2cc(Cl)ccc21 [Diazepam, diazepam]
increase of GABA-evoked currents [3]: approximately 45% | increase of MG-evoked currents [3]: approximately 60%

NCCCC(=O)O [GABA, gamma-aminobutyric acid, reference compound]
current on application to the intracellular face of macropatches [1]: did not elicit a current

Cc1ccc(-c2nc3ccc(C)cn3c2CC(=O)N(C)C)cc1 [zolpidem]
increase of GABA-evoked currents [3]: approximately 17% | increase of MG-evoked currents [3]: approximately 15%

CNCCC(Oc1ccc(C(F)(F)F)cc1)c1ccccc1 (stereo not drawn) [fluoxetine]
depression-like behavior in the cFST [4]: reduces depression-like behavior in the forced swim test

CC(=O)C=O [pure MG, methylglyoxal]
footslips on the balance beam (ataxia) [5]: increased footslips on the balance beam | time in the center of the OF ([6]; pure MG 5 mg/kg, 10 min later): increased time in the center of the OF | total distance traveled in the OF ([6]; pure MG 300 mg/kg): reduced total distance traveled in the OF | hypothermia (mice): caused hypothermia | inward currents in CGN ([2]; 10 μM): evoked inward currents in CGN

Cc1ncc2n1-c1ccc(Cl)cc1C(c1ccccc1F)=NC2 [midazolam]
center duration in the OFT [7]: increased center duration in the OFT | increase of GABA-evoked currents [3]: approximately 27% | increase of MG-evoked currents [3]: approximately 40%

O=CC(O)CO (stereo not drawn) [GA, glyceraldehyde]
locomotor effect in the open field (locomotion in Cd-1 mice): has locomotor depressant effects
